The METLIN SMRT retention time set (Domingo-Almenara et al. 2019)

Assay: gradient 5% acetonitrile 3 min, to 50% in 2 min, to 85% in 15 min, held 3 min, 100 µL/min
Settings: column: Zorbax Extend-C18 2.1 x 50 mm; eluents: water / acetonitrile, 0.1% formic acid
Summary of the method: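 Retention time was recorded from adduct peaks, which were picked computationally and each inspected manually. Pure standards ran in mixtures of ~100 molecules on HPLC coupled to a quadrupole time-of-flight mass spectrometer, in positive and negative ionization mode, through a Zorbax Extend-C18 column (2.1 × 50 mm, 1.8 μm) at 100 μL/min. Eluents were water and acetonitrile, each with 0.1% formic acid.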

RP-LC retention time [s] | Structure (SMILES)
819 | COC1C(=O)N(CC2CC2)C12CCN(S(=O)(=O)Cc1ccccc1)CC2 (stereo not given)
620 | CNC(=O)[C@@H](NC(=O)[C@H](CC(C)C)[C@H](O)C(=O)NO)C(C)(C)C
855 | Cc1ccc(C2=NC3(CCN(C(=O)c4ccccc4C)CC3)ON2)cc1
793 | Cc1nc(Cn2cccc2C(=O)Nc2ccc(F)cc2F)no1
1170 | COc1cccc(-c2csc(-c3nnn(-c4ccc(Cl)cc4)c3N)n2)c1
1170 | CCOc1ccc(-c2noc(Cn3c(=O)n(C(C)CC)c(=O)c4ccccc43)n2)cc1 (stereo not given)
1110 | COc1ccc2oc(-c3csc(NC(=O)c4ccc([N+](=O)[O-])s4)n3)cc2c1
929 | CCC(C)NC(=O)c1c(C)sc2ccn(Cc3ccc(F)cc3)c(=O)c12 (stereo not given)
633 | NC(=O)C1Cc2ccccc2N1C(=O)c1ccc([N+](=O)[O-])o1 (stereo not given)
614 | CCOc1ccc(-c2cc(=O)n(CC(=O)NCCn3ncccc3=O)cn2)cc1
812 | COc1ccc(-c2ccc(=O)n(CCCNC(=O)c3ccc(S(N)(=O)=O)cc3)n2)cc1
851 | CC1=C(c2cccc(Cl)c2)S(=O)(=O)N=C1N1CCCN(C(=O)c2ccsc2)CC1
640 | CCN1CCCC1CNC(=O)C1c2ccccc2C(=O)N(CCOC)C1c1ccc(F)cc1 (stereo not given)
603 | Cn1c(=O)sc2cc(S(=O)(=O)N3CCC(C(=O)NCc4cccnc4)CC3)ccc21
850 | CCc1cccc(C)c1N(C(=O)Cn1c(COC)nc2ccccc21)C(C)COC (stereo not given)
620 | CCC(C)NC(=O)N1CC(n2cc(C(=O)N(C)CCOC)nn2)C1 (stereo not given)
818 | CC1=C(c2cccc(Cl)c2)S(=O)(=O)N=C1N1CCCN(C(=O)c2ccco2)CC1
1230 | CCc1nc(-c2ccc(-c3noc(-c4ccncc4)n3)cc2)cs1
657 | CCc1ccccc1NC(=O)NCCNC(=O)c1ccc(NC(=O)C2CC2)cc1
902 | CCOc1ccc(NS(=O)(=O)c2cc(C(=O)Nc3ccc(C)c(C)c3)n[nH]2)cc1
965 | CC(C)c1cccc2sc(NC(=O)C3CCCN(S(C)(=O)=O)C3)nc12 (stereo not given)
684 | CCOc1nc2ccccc2nc1N1CCCC(C(=O)NCc2cccnc2)C1 (stereo not given)

RP-LC retention time [s] | Structure (SMILES)
882 | Cc1cc(C)cc(S(=O)(=O)N2CCC(c3nc(C(=O)N(C)C)c(C)o3)CC2)c1
1050 | COc1cccc(-c2noc(CN3C(=O)COc4cc(C)ccc43)n2)c1
675 | CCc1nnc(C2CN(C)CC23CCN(S(=O)(=O)c2ccc(C)c(Cl)c2)CC3)o1 (stereo not given)
575 | O=C(NCCc1ccccc1)N1CCc2nc[nH]c2C1
1190 | O=C(C1COc2ccccc2O1)N1CCc2cc(-c3csc(C4CC4)n3)ccc21 (stereo not given)
1040 | O=S1(=O)C[C@H](N2CCN(c3ccccn3)CC2)[C@@H](S(=O)(=O)c2ccc(F)cc2)C1
662 | CCNC(=O)C1CCN(C(=O)Nc2ccc(NC(=O)NCCC(C)C)cc2)CC1
859 | O=C(CN1C(=O)C(C(=O)N2CCCC2)Sc2ccccc21)N1CCN(c2ccccc2F)CC1 (stereo not given)
579 | CC(=O)N1CCN(c2ccnc3c2c(=O)n(CC(=O)Nc2cc(C)on2)c(=O)n3C)CC1
826 | Cc1[nH]c2ccccc2c1CC(=O)NCCc1c[nH]c2ccccc12
692 | CCOC(=O)c1nc(Nc2ccc(S(=O)(=O)Nc3nc(C)cc(C)n3)cc2)c2ccccc2n1
743 | Cc1ccc(CNC(=O)Cn2cnc3nc(N4CCCC(C(=O)NC5CC5)C4)sc3c2=O)cc1 (stereo not given)
680 | COc1ccc(C(=O)Nc2c(-c3ccccc3)nc3cc(C)ccn23)c(OC)c1
1190 | CC(C)(C)c1ccc(C(=O)NC2(c3nc(-c4ccncc4)no3)CCCCC2)cc1
835 | COc1ccc(C2C(C(=O)Nc3ccc4c(c3)OCO4)c3ccccc3C(=O)N2C)cc1 (stereo not given)
623 | CCc1nc(N)n(CC(=O)NCc2ccccc2)c(=O)c1C
834 | CCC(C(=O)Nc1cccc(C)c1)n1cnc2nc3c(cc2c1=O)CCCC3 (stereo not given)
747 | CCSc1nnc(-c2nn(C)c3c2CN(C(=O)c2ccccc2Cl)CC3)n1C
1260 | CCOc1ccc(-c2cc3c(=O)n(Cc4nc(-c5ccc(C)c(C)c5)no4)ncn3n2)cc1
803 | O=C(NC1CC1)C1CCN(S(=O)(=O)c2ccc(-c3noc(C4CC4)n3)cc2)CC1
808 | CCc1ccc(CNC(=O)c2csc(C(=O)NC)n2)cc1
776 | Cc1cccc(-c2ncccc2CNS(=O)(=O)c2cc(F)cc(F)c2)c1

RP-LC retention time [s] | Structure (SMILES)
572 | CN1CCN(CCNC(=O)c2ccc3c(c2)N(C)C(=O)C2CCCCN32)CC1 (stereo not given)
656 | Cc1cc(C(=O)N2CCCn3cc(-c4ccccc4F)nc32)nn1C
1030 | CCCCN1N=C(C(=O)N2CCC(C)CC2)S(=O)(=O)c2ccccc21
780 | CCCn1ccc2sc(C)c(C(=O)NCc3ccc(OC)c(OC)c3)c2c1=O
683 | Cc1ccc(C)c(-c2cc3c(=O)n(Cc4nc(-c5ccc6c(c5)OCO6)no4)ncn3n2)c1
976 | O=C(Nc1ccc(Cl)cc1)C1(c2cccs2)CCOCC1
635 | O=C1c2ccccc2C(=O)c2c1cccc2N1CCCC(CO)C1 (stereo not given)
976 | COc1cc(-c2noc(C3CC(=O)N(c4ccc(C)c(F)c4)C3)n2)cc(OC)c1OC (stereo not given)
623 | CCNc1nc(NCC)n2c(SCC(=O)Nc3ccccc3[N+](=O)[O-])nnc2n1
1090 | COc1cccc(-c2nnc(Cc3nc(-c4cccc(Cl)c4)no3)o2)c1
622 | COc1ccc(CNC(=O)Cc2nnc(-c3ccccn3)o2)cc1OC
598 | COc1ccc2[nH]c(=O)c(CCC(=O)NCCN(C)C3CCCCC3)cc2c1
695 | Cc1cc(=O)n(CC(=O)Nc2ccc(F)cc2C)c(N2CCCCC2)n1
783 | COc1cccc(CNC(=O)COc2cc(C)nc(N3CCN(c4ccccc4)CC3)n2)c1OC
993 | CC(C)Cn1cc(CCNS(=O)(=O)c2ccc(Cl)cc2)c2cccnc21
611 | CCC1=C(C(=O)Nc2ccccc2)C2CCCC3(C2)NCCCN13 (stereo not given)
933 | CC(C)c1ccc(CNC(=O)CN2CCN(Cc3ccc(F)cc3)C2=O)cc1
777 | CCC(CC)C(=O)N1CCCC(c2nc(CNC(=O)C3CCC3)cs2)C1 (stereo not given)
993 | CS(=O)(=O)N1CCCC1C(=O)Nc1nc(-c2cc(Cl)sc2Cl)cs1 (stereo not given)
869 | CCOC(=O)c1c(C)[nH]c(C(=O)N2CCC(CC(=O)NCc3ccc(CC)cc3)CC2)c1C
697 | COCCCNC(=O)c1cc2n(n1)CCCN(Cc1ccc(F)cc1)C2=O
